Here are results for 6 molecules from patent publication US12673918B2, “Small molecule RPN13 inhibitors with antitumor properties” (The Johns Hopkins University, priority 2019, dated 2026).

The subject of one series is A2780. As to the kind of experiment: MTT cytotoxicity assay, A2780.
The test system of another series is DLD1. Nature of the series: MTT cytotoxicity assay, DLD1. To be noted: Homo sapiens, DLD-1, read-out: cytotoxicity IC50 DLD1.
Another series has as its system PEO1. As to the kind of experiment: cells. To be noted: Homo sapiens, PEO1, read-out: cytotoxicity IC50 PEO1.
The subject of another series is HEC-1A. As to the kind of experiment: MTT cytotoxicity assay, HEC-1A. To be noted: read-out: cytotoxicity IC50 HEC-1A, Tables 3A/4B/4C. For orientation: Formazan colour is commonly taken as a measure of viable cells.
A further series deals with OVCAR3. Nature of the series: MTT cytotoxicity assay, OVCAR3.
Series [1] relates to HFF (Human Foreskin Fibroblast). As to the kind of experiment: MTT cytotoxicity assay, HFF normal cells. The series is classed as cell-based. To be noted: read-out: IC50 HFF.
Procedure: Cell lines and cytotoxicity assays: All cell lines were obtained from the American Type Culture Collection (ATCC) and cultured in the specified medium supplemented with 10% fetal bovine serum, 100 IU/mL penicillin, and 100 μg/mL streptomycin at 37° C. in a humidified 5% CO2/95% air incubator. […] To assess drug cytotoxicity, cells were seeded at 2,500 cells/well (10,000 cells/well for MM lines) in 100 μL medium in 96-well plate and after 24 treated with compounds for 72 h, incubated according to the manufacturer's protocol with the Thiazolyl Blue Tetrazolium Bromide (Sigma, M2128) and A570 measured using a Benchmark Plus microplate spectrophotometer (BIO-RAD). IC50 data was analyzed by Graphpad Prism software.
The next series has as its system PEA2. As to the kind of experiment: cells. To be noted: read-out: cytotoxicity IC50 PEA2.
A short description of series [2]: MTT cytotoxicity assay, RPE1. To be noted: human.
Procedure: (§1) Cell lines and cytotoxicity assays: All cell lines were obtained from the American Type Culture Collection (ATCC) and cultured in the specified medium supplemented with 10% fetal bovine serum, 100 IU/mL penicillin, and 100 μg/mL streptomycin at 37° C. in a humidified 5% CO2/95% air incubator. […] To assess drug cytotoxicity, cells were seeded at 2,500 cells/well (10,000 cells/well for MM lines) in 100 μL medium in 96-well plate and after 24 treated with compounds for 72 h, incubated according to the manufacturer's protocol with the Thiazolyl Blue Tetrazolium Bromide (Sigma, M2128) and A570 measured using a Benchmark Plus microplate spectrophotometer (BIO-RAD). IC50 data was analyzed by Graphpad Prism software. In the chirality studies the cells were treated with compounds for 48 h, and the cells were incubated and measured via the preceeding protocols.
Another series has as its system PC3. Nature of the series: MTT cytotoxicity assay, PC3. To be noted: Homo sapiens.
A further series relates to SKOV3-TR. As to the kind of experiment: MTT cytotoxicity assay, SKOV3-TR.
A further series concerns ID8 (murine). As to the kind of experiment: MTT cytotoxicity assay, ID8. It is filed as cell-based. To be noted: Mus musculus, 48 h, read-out: IC50 ID8 (murine).
The next series can be described thus: in vitro. To be noted: human.
The subject of a further series is HeLa. To be noted: human.
In series [3] the test system is proteasome (4UbFL reporter). As to the kind of experiment: 4UbFL reporter, ES2 cells stably expressing 4UbFL. It is filed as cell-based, human. To be noted: ES2 stably expressing 4UbFL, 4 h. The text has this:
FIG. 14B illustrates fold increase in bioluminiscence of ES2 cells stably expressing 4UbFL at 4 hrs post-treatment of compounds, as measured by luminometer.
Next examined was the effect of compounds on proteasome function using a DNA construct that expresses a reporter gene comprising firefly luciferase fused to four molecules of ubiquitin (4UbFL) at its amino terminus (41). The 4UbFL is rapidly degraded by active proteasomes, resulting in a low level of enzymic activity and bioluminescence. Upon proteasome inhibition, increased 4UbFL activity can be measured by luminescence assay using luciferin as a substrate as the protein is stabilized.

For a further series, the system named is T22. As to the kind of experiment: MTT cytotoxicity assay, T22. To be noted: read-out: cytotoxicity IC50 T22, Tables 3A/4B/4C, BRCA2 + VE.
The next series relates to UWB1.289. As to the kind of experiment: MTT cytotoxicity assay, UWB1.289. To be noted: UWB1289, read-out: cytotoxicity IC50 UWB1.289.
Series [4] in a line: Repeat dose MTD in healthy female CD1 mice. To be noted: mouse, in vivo, 3 repeated doses every third day. The text has this: The starting doses were based on previous studies with RA183. Doses were escalated incrementally in steps of not more than 50%. When either of these endpoints was met, dose escalation was halted and the prior dose was set as the MTD.
In series [5] the test system is proteasome (4UbFL reporter). As to the kind of experiment: 4UbFL reporter in leg muscle of CD1 mice. The series is classed as in vivo. The procedure:
Pilot safety studies were performed in CD1 mice (n=3/dose group of healthy female mice aged 6-8 weeks) with increasing single doses delivered i.p. and the NOAEL (no-observed-adverse-effect level) was selected for further animal studies. […] Bortezomib was dissolved in a minimal amount of DMSO and further diluted with saline before injection in a dose finding study. […] To measure on-target inhibition of proteasome activity in mice, a leg muscle of CD-1 mice was transduced with the 4UbFL reporter construct. […] Briefly, mouse leg muscle was electroporated with 4UbFL plasmid and basal bioluminescence was measured after 24 hr using IVIS200 imager after injecting luciferin substrate. Mice were randomized (n=5/group) and treated with compounds in PEG400: Cremophor: Tween40 combination or vehicle alone as shown in Table 5 with one dose delivered by intraperitoneal injection. The mice were again imaged at 4 h, 24 h, 48 h post treatment.

The next series has as its system RPE1-ATMKO. Nature of the series: MTT cytotoxicity assay, RPE1-ATMKO. To be noted: read-out: cytotoxicity IC50 RPE1-ATMKO.
A further series relates to OV2008. As to the kind of experiment: MTT cytotoxicity assay, OV2008. To be noted: read-out: cytotoxicity IC50 OV2008.
The subject of another series is MCF7. Nature of the series: MTT cytotoxicity assay, MCF7. To be noted: read-out: cytotoxicity IC50 MCF7, Tables 3A/4B/4C.
Another series has as its system VU93. As to the kind of experiment: MTT cytotoxicity assay, VU93. To be noted: read-out: cytotoxicity IC50 VU93, Tables 3A/4B/4C.
Setting [6] is: read-out: cytotoxicity IC50 A2780, Tables 3A/4B/4C, MTT assay.
The mark [7] stands for this setting: read-out: cytotoxicity IC50 OVCAR3, Tables 3A/4B/4C, MTT assay.
The mark [8] stands for this setting: Table 3, MTT, 48 hr, normal Human Foreskin Fibroblast.
The mark [9] stands for this setting: read-out: cytotoxicity IC50 SKOV3-TR, Tables 3A/4B/4C, MTT assay.
Setting [10] is: PC-3, read-out: cytotoxicity IC50 PC3.

Like-named read-outs stand apart in the source and are kept apart here.

Procedure for DLD1: as §1
Procedure for OV2008: as §1
Procedure for PEA2: as §1
Procedure for PEO1: as §1
Procedure for RPE1-ATMKO: as §1
Procedure for UWB1.289: as §1
Procedure for in vitro: as §1

In the case of `CC(C)C[C@H](NC(=O)[C@H](Cc1ccccc1)NC(=O)c1cnccn1)B(O)O` [Bortezomib, bortezomib, reference compound], the IC50 in the series on A2780 (setting [6]) is 3 nM; with DLD1 it was 4.8 nM; in the series on PEO1, 31 nM; with HEC-1A, 153 nM; with OVCAR3 (setting [7]), 30 nM; in series [1] (setting [8]) it was above 100 nM. Further, the IC50 is 30 nM in the series with PEA2 and 3.5 nM in series [2] (RPE1 cells).
`O=C(CCl)N[C@@H](Cc1ccccc1)C(=O)N1C/C(=C\c2ccc([N+](=O)[O-])cc2)C(=O)/C(=C/c2ccc([N+](=O)[O-])cc2)C1` [RA375]: the IC50 with DLD1 was 24 nM; in the series with PEO1, 27 nM; in the series with PC3 (PC-3, 48 h, read-out: IC50 PC3), 27 nM; with SKOV3-TR (setting [9]), 22 nM; in the series with ID8 (murine), 44 nM; in the series on OVCAR3 (read-out: IC50 OVCAR3), 17 nM. For the same molecule, the IC50 was 41 nM in the series “in vitro”; above 1000 nM in [1] (Homo sapiens, Fibroblast, 48 h); 60 nM with PEA2; 13 nM in the series on HeLa.
Regarding `C[C@H]1/C(=C\c2ccc([N+](=O)[O-])cc2)C(=O)/C(=C/c2ccc([N+](=O)[O-])cc2)CN1C(=O)[C@@H](N)Cc1ccccc1`, in series [3], the 4UbFL bioluminescence result was “increased bioluminescence in a dose dependent manner”. Besides, the IC50 in the series with DLD1 amounted to 164 nM; with T22, 1.36 µM; with PEO1 it was 31 nM; with HEC-1A it was 207 nM; in the series on SKOV3-TR (setting [9]), 60 nM; in the series on UWB1.289, 43.9 nM. Moreover, the IC50 with RPE1-ATMKO worked out at 24 nM; in the series with OV2008, 40 nM; in “in vitro”, 41 nM; in the series with PEA2, 64 nM; in the series on HeLa, 23 nM. For the same molecule, the MTD in [4] stood at 20 mg/kg. The “fold increased bioluminescence (4UbFL, leg muscle)” value is on record as 4-6 fold in series [5] (CD1 mice, 30 mg/kg i.p., PEG400: Cremophor: Tween40, at 4 h and 24 h); 14-22 fold in series [5] (mouse, in vivo, ip, 30 mg/kg).
Turning to `N[C@@H](Cc1ccccc1)C(=O)N1C/C(=C\c2ccc(Cl)c(Cl)c2)C(=O)/C(=C/c2ccc(Cl)c(Cl)c2)C1` [RA190, reference compound], the IC50 in the series on A2780 (setting [6]) stood at 139 nM; in the series on T22, 16.3 µM; in the series on PEO1 it was 232 nM; with HEC-1A, 431 nM; in the series with PC3 (setting [10]) it was 162 nM; with SKOV3-TR (setting [9]), 109 nM. For the same molecule, the IC50 is 750 nM with MCF7; 120 nM with OVCAR3 (setting [7]); 625 nM in the series with VU93; above 1000 nM in series [1] (setting [8]); 396 nM in the series with PEA2.
Consider `N[C@@H](Cc1ccccc1)C(=O)N1C/C(=C\c2ccc([N+](=O)[O-])cc2)C(=O)/C(=C/c2ccc([N+](=O)[O-])cc2)C1` [RA183, reference compound], for which the IC50 in the series with A2780 (read-out: IC50 A2780, Table 3, MTT, 48 hr, Ovarian) is 161 nM; in the series on A2780 (setting [6]) it was 161 nM; in the series on HEC-1A, 378 nM; with PC3 (PC-3, 48 h, read-out: IC50 PC3), 133 nM; in the series on PC3 (setting [10]), 133 nM; in the series on SKOV3-TR (read-out: IC50 SKOV3-TR, Table 3, MTT, 48 hr, Ovarian, paclitaxel resistant), 77 nM. Further, the IC50 was 77 nM in the series on SKOV3-TR (setting [9]); 198 nM with ID8 (murine); 78 nM in the series with OVCAR3 (read-out: IC50 OVCAR3, Table 3, MTT, 48 hr, Ovarian); 78 nM in the series on OVCAR3 (setting [7]); 80 nM in the series on OV2008; above 1000 nM in series [1] (Homo sapiens, Fibroblast, 48 h).
Take `CC1/C(=C\c2ccc([N+](=O)[O-])cc2)C(=O)/C(=C/c2ccc([N+](=O)[O-])cc2)CN1C(=O)[C@H](Cc1ccccc1)NC(=O)CCl` (stereo partly drawn) [RA414]: the IC50 in the series on A2780 (setting [6]) was 3.5 nM; in the series with DLD1 it was below 40 nM; with PEO1, 30 nM; with HEC-1A, 196 nM; with PC3 (setting [10]), 12 nM; in the series on SKOV3-TR (setting [9]), below 20 nM. Further, the IC50 is 75 nM with MCF7; below 20 nM in the series with UWB1.289; below 40 nM in the series on RPE1-ATMKO; below 20 nM in the series on OVCAR3 (setting [7]); 40 nM in the series with VU93; 30 nM in the series on PEA2. The IC50 in series [2] was below 40 nM. For the same molecule, in series [3], the 4UbFL bioluminescence entry was “increased bioluminescence in a dose dependent manner”. Also, the MTD in series [4] turned out to be 10 mg/kg. Besides, the “duration of on-target activity (4UbFL, leg muscle)” value in series [5] (CD1 mice, 3 mg/kg i.p., PEG system) is reported as “on-target activity over 72 hr similar to bortezomib”.
